Assay results from patent US20240018161A1, “MODULATORS OF CYSTIC FIBROSIS TRANSMEMBRANE CONDUCTANCE REGULATOR” (VERTEX PHARMACEUTICALS INCORPORATED, priority 2020, published 2024).
Like-named read-outs stand apart in the source and are kept apart here.

Molecular target: CFTR-mediated chloride transport in human intestinal epithelial enteroid cells (Homo sapiens, UniProt P13569)
Test: Membrane potential dye, Enteroid Assay A
Type: cell-based
Conditions: for EC50: read-out: Ent. A EC50
Summary of the method: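 Membrane potential dye (20 μM methyl oxonol, with 30 μM CaCCinh-A01 and 30 μM Chicago Sky Blue) loaded 25 min at room temperature into ROCK-inhibitor-seeded human enteroid cells. Chloride-free stimulation buffer triggered transport, followed by 15 min fluorescence. % Activity relative to 3 μM/3 μM/300 nM triple-combination control.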

[1] = enteroid cells incubated with test compound 18-24 hours, acute 10 μM forskolin and 300 nM N-[2,4-bis(1,1-dimethylethyl)-5-hydroxyphenyl]-1,4-dihydro-4-oxoquinoline-3-carboxamide
[2] = percentage of chloride transport of triple combination control (3 μM N-[(6-amino-2-pyridyl)sulfonyl]-6-(3-fluoro-5-isobutoxy-phenyl)-2-[(4S)-2,2,4-trimethylpyrrolidin-1-yl]pyridine-3-carboxamide based)

Sequence of CFTR-mediated chloride transport in human intestinal epithelial enteroid cells (P13569 with tags, fused parts or gaps DEL508-508): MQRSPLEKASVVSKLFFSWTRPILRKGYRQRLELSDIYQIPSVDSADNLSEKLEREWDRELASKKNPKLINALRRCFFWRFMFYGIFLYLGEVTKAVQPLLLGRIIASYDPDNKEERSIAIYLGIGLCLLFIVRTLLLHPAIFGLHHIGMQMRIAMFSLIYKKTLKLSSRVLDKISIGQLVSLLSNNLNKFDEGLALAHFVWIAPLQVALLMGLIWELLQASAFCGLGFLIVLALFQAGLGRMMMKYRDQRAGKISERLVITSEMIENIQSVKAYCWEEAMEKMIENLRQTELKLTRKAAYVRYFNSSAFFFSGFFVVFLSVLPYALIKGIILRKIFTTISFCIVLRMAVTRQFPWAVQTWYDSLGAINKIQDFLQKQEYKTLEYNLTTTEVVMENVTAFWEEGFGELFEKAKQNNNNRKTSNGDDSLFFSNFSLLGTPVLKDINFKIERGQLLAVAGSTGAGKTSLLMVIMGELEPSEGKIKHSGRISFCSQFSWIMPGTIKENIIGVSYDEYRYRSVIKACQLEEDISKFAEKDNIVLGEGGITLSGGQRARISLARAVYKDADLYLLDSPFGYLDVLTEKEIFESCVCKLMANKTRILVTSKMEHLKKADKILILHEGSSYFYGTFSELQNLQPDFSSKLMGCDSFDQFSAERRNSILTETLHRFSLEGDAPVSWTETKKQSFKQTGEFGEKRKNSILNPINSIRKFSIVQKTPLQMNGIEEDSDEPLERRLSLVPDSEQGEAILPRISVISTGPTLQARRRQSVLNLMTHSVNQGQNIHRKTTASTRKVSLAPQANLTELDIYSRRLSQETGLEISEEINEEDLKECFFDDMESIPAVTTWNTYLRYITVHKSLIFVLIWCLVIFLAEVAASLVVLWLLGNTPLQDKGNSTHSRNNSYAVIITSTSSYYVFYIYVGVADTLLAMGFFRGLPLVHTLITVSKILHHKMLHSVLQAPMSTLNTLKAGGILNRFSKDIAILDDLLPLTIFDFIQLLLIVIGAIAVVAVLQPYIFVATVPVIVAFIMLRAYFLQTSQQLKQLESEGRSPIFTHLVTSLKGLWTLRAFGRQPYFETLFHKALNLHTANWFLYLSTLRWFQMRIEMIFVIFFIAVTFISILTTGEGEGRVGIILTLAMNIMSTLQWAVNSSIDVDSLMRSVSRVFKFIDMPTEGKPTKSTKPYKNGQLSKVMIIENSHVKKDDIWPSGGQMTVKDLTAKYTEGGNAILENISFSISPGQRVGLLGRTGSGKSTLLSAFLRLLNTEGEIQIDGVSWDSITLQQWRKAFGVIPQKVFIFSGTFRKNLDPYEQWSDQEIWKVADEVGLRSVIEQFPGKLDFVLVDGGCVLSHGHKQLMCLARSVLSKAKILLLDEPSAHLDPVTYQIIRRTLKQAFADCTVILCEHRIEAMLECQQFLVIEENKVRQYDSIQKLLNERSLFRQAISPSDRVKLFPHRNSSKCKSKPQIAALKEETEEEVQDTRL

| Ent. A Max Activity (%) (Enteroid Assay A) | EC50 (Enteroid Assay A) [nM] | EC50 [1] [nM] | SMILES | Ent. A Max Activity (%) [2] |
| --- | --- | --- | --- | --- |
| – | – | 1000 to 3000 | Cc1cccc(C)c1-c1cc2nc(n1)NS(=O)(=O)c1cccc(c1)C(=O)N1CC(C)(C)CC1CO2 (centres unmarked) [Compound 368] | ++ (++ is 30-60%) |
| – | – | < 1000 | Cc1cccc(C)c1-c1cc2nc(n1)NS(=O)(=O)c1cccc(c1)C(=O)N1CC(CC(c3ccccc3)C1)O2 (single isomer, unassigned) [Compound 224, 18-(2,6-dimethylphenyl)-5-phenyl-2-oxa-14λ^6-thia-7,15,17,20-tetraazatetracyclo[14.3.1.13,7.19,13]docosa-1(19),9(21),10,12,16(20),17-hexaene-8,14,14-trione] | ++ (++ is 30-60%) |
| +++ (+++ is >600%) | < 1000 | – | Cc1cccc(C)c1-c1cc2nc(n1)NS(=O)(=O)c1cccc(c1)C(=O)N1CCN(Cc3ccccc3)CC(O2)C1CC(C)C (single isomer, unassigned) [Compound 90, 18-Benzyl-12-(2,6-dimethylphenyl)-21-(2-methylpropyl)-15-oxa-8λ^6-thia-1,9,11,18,22-pentaazatetracyclo[14.4.1.13,7.110,14]tricosa-3(23),4,6,10(22),11,13-hexaene-2,8,8-trione] | – |
| +++ (+++ is >600%) | < 1000 | – | Cc1cccc(C)c1-c1cc2nc(n1)NS(=O)(=O)c1cccc(c1)C(=O)N1CCN(CC(C)(C)C)C[C@H](C1)O2 [Compound 19] | – |
| + (+ is <30%) | – | – | Cc1cccc(C)c1-c1cc2nc(n1)NS(=O)(=O)c1cccc(c1)CN1CC(CNCC1=O)O2 (centres unmarked) [Compound 76, 12-(2,6-Dimethylphenyl)-15-oxa-8λ^6-thia-1,9,11,18,22-pentaazatetracyclo[14.4.1.13,7.110,14]tricosa-3(23),4,6,10,12,14(22)-hexaene-8,8,20-trione] | – |
| ++ (++ is 30-60%) | 3000 to 30000 | – | Cc1cccc(C)c1-c1cc2nc(n1)NS(=O)(=O)c1cccc(c1)C(=O)N1CCN(C3CC4(COC4)C3)C[C@H](C1)O2 [Compound 25] | – |
| – | – | 3000 to 30000 | Cc1cccc(C)c1-c1cc2nc(n1)NS(=O)(=O)c1cccc(c1)C(=O)N1CC(O2)C(N2CCOCC2)C1 (centres unmarked) [Compound 323] | ++ (++ is 30-60%) |
| – | 1000 to 3000 | – | Cc1cccc(C)c1-c1cc2nc(n1)NS(=O)(=O)c1cccc(c1)C(=O)N1CC3C(CCCN3C)[C@H](C1)O2 (single isomer, unassigned) [Compound 204, 12-(2,6-dimethylphenyl)-21-methyl-15-oxa-8λ^6-thia-1,9,11,21,25-pentaazapentacyclo[14.7.1.13,7.110,14.017,22]hexacosa-3,5,7(26),10(25),11,13-hexaene-2,8,8-trione] | – |
| – | – | 1000 to 3000 | Cc1cccc(C)c1-c1cc2nc(n1)NS(=O)(=O)c1cccc(c1)C(=O)N1CCN(Cc3ccccn3)CC(C1)O2 (centres unmarked) [Compound 64, 12-(2,6-Dimethylphenyl)-18-[(pyridin-2-yl)methyl]-15-oxa-8λ^6-thia-1,9,11,18,22-pentaazatetracyclo[14.4.1.13,7.110,14]tricosa-3(23),4,6,10(22),11,13-hexaene-2,8,8-trione] | ++ (++ is 30-60%) |

Continued, compound first:

| SMILES | Ent. A Max Activity (%) (Enteroid Assay A) | EC50 (Enteroid Assay A) [nM] | EC50 [1] [nM] | Ent. A Max Activity (%) [2] |
| --- | --- | --- | --- | --- |
| Cc1cccc(C)c1-c1cc2nc(n1)NS(=O)(=O)c1cccc(c1)CN1CC(CN(C3CCC(F)(F)CC3)CC1=O)O2 (centres unmarked) [Compound 78, 18-(4,4-Difluorocyclohexyl)-12-(2,6-dimethylphenyl)-15-oxa-8λ^6-thia-1,9,11,18,22-pentaazatetracyclo[14.4.1.13,7.110,14]tricosa-3(23),4,6,10,12,14(22)-hexaene-8,8,20-trione] | ++ (++ is 30-60%) | < 1000 | – | – |
| Cc1cccc(C)c1-c1cc2nc(n1)NS(=O)(=O)c1cccc(c1)C(=O)N1CCN(Cc3ccc(O)cc3)C[C@@H]1CO2 [Compound 273] | – | – | 1000 to 3000 | ++ (++ is 30-60%) |
| Cc1cccc(C)c1-c1cc2nc(n1)NS(=O)(=O)c1cccc(c1)C(=O)N1CC(CCCO2)CC1(C)C (centres unmarked) [Compound 356] | ++ (++ is 30-60%) | 3000 to 30000 | – | – |
| Cc1cccc(C)c1-c1cc2nc(n1)NS(=O)(=O)c1cccc(c1)C(=O)N1CCN(C(=O)CC(C)(C)C)C[C@H](C1)O2 [Compound 81, (16R)-18-(3,3-Dimethylbutanoyl)-12-(2,6-dimethylphenyl)-15-oxa-8λ^6-thia-1,9,11,18,22-pentaazatetracyclo[14.4.1.13,7.110,14]tricosa-3(23),4,6,10,12,14(22)-hexaene-2,8,8-trione] | +++ (+++ is >600%) | 1000 to 3000 | – | – |
| Cc1cccc(C)c1-c1cc2nc(n1)NS(=O)(=O)c1cccc(c1)C(=O)N1C[C@@H](CN(C3CC4(CCCCC4)C3)C[C@H]1CC(C)C)O2 [Compound 140] | +++ (+++ is >600%) | < 1000 | – | – |
| Cc1cccc(C)c1-c1cc2nc(n1)NS(=O)(=O)c1cccc(c1)C(=O)N1CCN(C3CCCCC3)C[C@H](C1)O2 [Compound 22] | +++ (+++ is >600%) | < 1000 | – | – |
| CNc1ccc(CN2CCN3CC(C2)Oc2cc(-c4c(C)cccc4C)nc(n2)NS(=O)(=O)c2cccc(c2)C3=O)cn1 (centres unmarked) [Compound 47] | – | – | 3000 to 30000 | +++ (+++ is >60%) |
| Cc1cccc(C)c1-c1cc2nc(n1)NS(=O)(=O)c1cccc(c1)C(=O)N1CCN(CC3CCCCC3)C[C@@H]1CO2 [Compound 297] | – | – | < 1000 | +++ (+++ is >60%) |
| Cc1cccc(C)c1-c1cc2nc(n1)NS(=O)(=O)c1cccc(c1)C(=O)N1CCN(CCC3CCOCC3)CC(C1)O2 (centres unmarked) [Compound 60] | – | – | 3000 to 30000 | +++ (+++ is >60%) |
| Cc1cccc(C)c1-c1cc2nc(n1)NS(=O)(=O)c1cccc(c1)C(=O)N1CCN(C(=O)N3CCCCC3)C[C@@H]1CO2 [Compound 258] | – | – | 3000 to 30000 | ++ (++ is 30-60%) |
| Cc1cccc(C)c1-c1cc2nc(n1)NS(=O)(=O)c1cccc(c1)C(=O)N1CCN(CCC(C)(C)C)C[C@@H](O2)[C@H]1CC(C)C [Compound 159] | +++ (+++ is >600%) | < 1000 | – | – |
| Cc1cccc(C)c1-c1cc2nc(n1)NS(=O)(=O)c1cccc(c1)C(=O)N1CCN(C(=O)CCN3CCCC3)C(CO2)C1 (centres unmarked) [Compound 303] | – | – | – | + (+ is <300%) |
| Cc1cccc(C)c1-c1cc2nc(n1)NS(=O)(=O)c1cccc(c1)C(=O)N1C[C@@H](CN(C)C[C@H]1C(C)C)O2 [Compound 125, (16R,20R)-12-(2,6-Dimethylphenyl)-18-methyl-20-(propan-2-yl)-15-oxa-8λ^6-thia-1,9,11,18,22-pentaazatetracyclo[14.4.1.13,7.110,14]tricosa-3(23),4,6,10(22),11,13-hexaene-2,8,8-trione] | +++ (+++ is >600%) | < 1000 | – | – |
| Cc1cccc(C)c1-c1cc2nc(n1)NS(=O)(=O)c1cccc(c1)C(=O)N1C[C@@H](CN(C3CC4(CCCC4)C3)[C@@H](CC(C)C)C1)O2 [Compound 156] | +++ (+++ is >600%) | < 1000 | – | – |
| Cc1cccc(C)c1-c1cc2nc(n1)NS(=O)(=O)c1cccc(c1)C(=O)N1C[C@@H](CN(C3CC4(CCCC4)C3)C[C@@H]1C(C)C)O2 [Compound 147] | +++ (+++ is >600%) | < 1000 | – | – |
| Cc1cccc(C)c1-c1cc2nc(n1)NS(=O)(=O)c1cccc(c1)C(=O)N1CCN(CC3CC3)C[C@@H]1CO2 [Compound 262] | – | – | 3000 to 30000 | +++ (+++ is >60%) |
| Cc1cccc(C)c1-c1cc2nc(n1)NS(=O)(=O)c1cccc(c1)C(=O)N1CCN(CC3CCOCC3)C[C@@H]1CO2 [Compound 295] | – | – | 1000 to 3000 | +++ (+++ is >60%) |
| Cc1cccc(C)c1-c1cc2nc(n1)NS(=O)(=O)c1cccc(c1)C(=O)N1C[C@@H](CNC[C@@H]1CC(C)(C)C)O2 [Compound 135, (16R,20S)-12-(2,6-Dimethylphenyl)-20-(2,2-dimethylpropyl)-15-oxa-8λ^6-thia-1,9,11,18,22-pentaazatetracyclo[14.4.1.13,7.110,14]tricosa-3(23),4,6,10(22),11,13-hexaene-2,8,8-trione] | ++ (++ is 30-60%) | < 1000 | – | – |
| Cc1cccc(C)c1-c1cc2nc(n1)NS(=O)(=O)c1cccc(c1)C(=O)N1CCN(CCC(C)(C)C)CC(O2)C1CC(C)C (single isomer, unassigned) [Compound 92, 18-(3,3-Dimethylbutyl)-12-(2,6-dimethylphenyl)-21-(2-methylpropyl)-15-oxa-8λ^6-thia-1,9,11,18,22-pentaazatetracyclo[14.4.1.13,7.110,14]tricosa-3(23),4,6,10(22),11,13-hexaene-2,8,8-trione] | +++ (+++ is >600%) | < 1000 | – | – |
| Cc1cccc(C)c1-c1cc2nc(n1)NS(=O)(=O)c1cccc(c1)C(=O)N1CCN(Cc3c[nH]cn3)C[C@@H]1CO2 [Compound 284] | – | – | – | + (+ is <300%) |
| Cc1cccc(C)c1-c1cc2nc(n1)NS(=O)(=O)c1cccc(c1)C(=O)N1C[C@@H](CN(CCC(C)(C)C)C[C@@H]1CC(C)C)O2 [Compound 153] | ++ (++ is 30-60%) | < 1000 | – | – |
